Measurements published in US10470991B2, “(R)-N-(adamantyl-2-yl)pyrrolidine-2-carboxamide derivatives for cosmetic use” (DSM IP ASSETS B.V., priority 2015, dated 2019).
Counter-ions that a name gives are not always drawn.

What was measured:
11β-HSD1 [1] = target: T1, 11β-HSD1 (Homo sapiens, UniProt P28845); assay: Human keratinocytes assay: 11β-HSD1 activity (cortisol level in supernatant after cortisone treatment); type: cell-based; design: Primary human skin keratinocytes obtained from CellNTec advanced Cell Systems; host or cells: primary human skin keratinocytes; conditions: 1000 nM cortisone, 48 h, primary human keratinocytes
T1 sequence (P28845 whole entry): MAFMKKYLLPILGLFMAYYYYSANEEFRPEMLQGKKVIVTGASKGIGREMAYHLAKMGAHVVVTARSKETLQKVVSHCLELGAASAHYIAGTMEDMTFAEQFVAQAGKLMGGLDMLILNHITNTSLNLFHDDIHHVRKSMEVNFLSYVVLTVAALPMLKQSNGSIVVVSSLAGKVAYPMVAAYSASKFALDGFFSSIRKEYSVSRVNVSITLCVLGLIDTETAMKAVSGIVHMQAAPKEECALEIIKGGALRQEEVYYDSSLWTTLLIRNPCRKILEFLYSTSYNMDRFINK
Protocol: Cell Culture: Primary human skin keratinocytes obtained from CellNTec advanced Cell Systems were maintained in CnT-PR medium at 37° C. in a humidified 5% CO2-air atmosphere. Cells were subcultured before reaching confluence.
Assessment of 11β-HSD1 Activity: Human primary keratinocytes were pre-cultured in complete culture media (CnT-PR, CellNTec) to 90% of confluence. Subsequently cells were washed twice with PBS-buffer to remove remaining corticosteroids and media were exchanged to custom made hydrocortisone-free media. 48 h later cell culture supernatant was collected and cortisol levels were assessed with the Cortisol Parameter Assay Kit (R&D Systems) following the instructions of the protocol and using a Multiskan Ascent plate reader (Labsystems).
Calculation: % remaining 11β-HSD1 activity=(cortisol-level with inhibitor/cortisol-level without inhibitor)*100%

11β-HSD1 [2] = target: T1, 11β-HSD1; assay: Inhibition of 11-beta-hydroxysteroid dehydrogenase type 1, activity assay in cell lysates (HEK-293 HHH7 clone, radiolabeled cortisone, TLC); type: biochemical; design: expressed in transfected cells; host or cells: HEK-293 (HHH7 clone), used as cell lysate; conditions: inhibitor 300 nM, 10 min 37° C.
Protocol: The cells were then washed with phosphate-buffered saline, and centrifuged for 4 min at 150×g. After removal of the supernatants, cell pellets were snap frozen on dry ice and stored at −80° C. until further use.
Cell lysates were incubated for 10 min at 37° C. in TS2 buffer (100 mM NaCl, 1 mM EGTA, 1 mM EDTA, 1 mM MgCl2, 250 mM sucrose, 20 mM Tris-HCl, pH 7.4) in a final volume of 22.2 μL containing either solvent (0.1% DMSO) or the inhibitor at the respective concentration as indicated in table 3-1.
Reactions were stopped after 10 min by adding an excess of unlabeled cortisone and cortisol (1:1, 2 mM, in methanol). The steroids were separated by TLC, using methanol-chloroform (1:9) as solvent, followed by scintillation counting and calculation of substrate concentration.

[3] = tested on: Human skin from abdominal plastic surgery; assay: Total dermal collagen after cortisone and cortisone/inhibitor treatment (human skin samples in culture, Picrosirius Red staining); type: cell-based; conditions: for Dermal collagen (score, untreated sample set to 100%): topical daily
Protocol: Human skin from abdominal plastic surgery was used. The skin samples were cut in pieces of ˜8×3 mm (Ø×thickness) and cultured up to day 6 in an air-liquid interface in a perforated ring of stainless steel in contact with a culture medium (modified Williams'E medium), while renewing the culture medium on day 3. Six skin specimens were used for each test sample. Each test sample (4 μl) was applied topically on top of each piece after cleaning of the surface with a cotton pad, which was subsequently covered with a 6 Ø mm delivery membrane, this procedure was repeated daily. After 6 days skin sections were stained with Picrosirius Red histochemical staining, that dyes collagen fibers in purple-red. The papillary dermis was selected for the analysis. The different colors of the pictures were separated by using a deconvolution matrix. After deconvolution only pink-reddish images are used. Within these images the evaluation of dermal collagen was performed by estimating both color intensity and distribution with IMAGE J (NIH) analysis software. Two slides of each skin sample were processed by image acquisition and related analysis (i.e. 12 images for each treatment).

SMILES	remaining 11β-HSD1 activity (11β-HSD1 [1]; 3.16 nM inhibitor)	remaining 11β-HSD1 activity (11β-HSD1 [1]; 10.00 nM inhibitor)	remaining 11β-HSD1 activity (11β-HSD1 [1]; 31.62 nM inhibitor)	remaining 11β-HSD1 activity (11β-HSD1 [1]; 100.00 nM inhibitor)	remaining 11β-HSD1 activity (11β-HSD1 [1]; 316.20 nM inhibitor)	remaining 11β-HSD1 activity (11β-HSD1 [1]; 1000.00 nM inhibitor)	11β-HSD1 Remaining activity [% of control] (11β-HSD1 [2])	other results
CC(=O)N[C@@H](Cc1ccc(F)cc1)C(=O)N1CCC[C@@H]1C(=O)NC1C2CC3CC(C2)CC1C3 (stereo partly drawn) [(I-h), (R)-1-((S)-2-acetamido-3-(4-fluorophenyl)propanoyl)-N-(adamantan-2-yl)-pyrrolidine-2-carboxamide]	100%	106%	89%	78%	52%	25%	37 % of control	
CCOc1ccc(C[C@H](N)C(=O)N2CCC[C@@H]2C(=O)NC2C3CC4CC(C3)CC2C4)cc1 (stereo partly drawn) [(I-k), (R)-N-(adamantan-2-yl)-1-((S)-2-amino-3-(4-ethoxyphenyl)propanoyl)pyrrolidine-2-carboxamide trifluoroacetate]	95%	100%	89%	80%	58%	36%	41 % of control	
CC(=O)N[C@@H](Cc1ccc(C#N)cc1)C(=O)N1CCC[C@@H]1C(=O)NC1C2CC3CC(C2)CC1C3 (stereo partly drawn) [(I-l), (R)-1-((S)-2-acetamido-3-(4-cyanophenyl)-propanoyl)-N-(adamantan-2-yl)pyrrolidine-2-carboxamide]	94%	92%	76%	57%	28%	12%	24 % of control	Increase versus cortisone (#2) ([3]; 10 μM in DMSO, day 6): +4%; Dermal collagen (score, untreated sample set to 100%) ([3]; 10 μM in DMSO, day 6, cortisone/inhibitor treatment): 80%; Increase versus cortisone (#2) ([3]; 100 μM in DMSO, day 6): +17%; Dermal collagen (score, untreated sample set to 100%) ([3]; 100 μM in DMSO, day 6, cortisone/inhibitor treatment): 90%; Increase versus cortisone (#2) ([3]; 200 μM in DMSO, day 6): +24%; Dermal collagen (score, untreated sample set to 100%) ([3]; 200 μM in DMSO, day 6, cortisone/inhibitor treatment): 96%
C[C@H](N)C(=O)NCC(=O)NCCN1CCC[C@@H]1C(=O)NC1C2CC3CC(C2)CC1C3 (stereo partly drawn) [(I-o), (R)-N-(adamantan-2-yl)-1-(2-(2-((S)-2-aminopropanamido)acetamido)ethyl)pyrrolidine-2-carboxamide bistrifluoroacetate]							43 % of control	
C[C@H](NC(=O)CN)C(=O)NCCN1CCC[C@@H]1C(=O)NC1C2CC3CC(C2)CC1C3 (stereo partly drawn) [(I-p), (R)-N-(adamantan-2-yl)-1-(2-((S)-2-(2-aminoacetamido)propanamido)ethyl)pyrrolidine-2-carboxamide bistrifluoroacetate]							57 % of control	
NCC(=O)N[C@@H](Cc1c[nH]c2ccccc12)C(=O)N1CCC[C@@H]1C(=O)NC1C2CC3CC(C2)CC1C3 (stereo partly drawn) [(I-q), (R)-N-(adamantan-2-yl)-1-(glycyl-L-tryptophyl)pyrrolidine-2-carboxamide trifluoroacetate]							69 % of control	
C[C@]12CCC(=O)C=C1CC[C@@H]1[C@@H]2C(=O)C[C@@]2(C)[C@H]1CC[C@]2(O)C(=O)CO [cortisone, reference compound]								Dermal collagen (score, untreated sample set to 100%) ([3]; cortisone 0.1 μM in DMSO alone, day 6, positive control for collagen inhibition): 77%
